# Data: ChEMBL document CHEMBL5030541, “Non-alkylator anti-glioblastoma agents induced cell cycle G2/M arrest and apoptosis: Design, in silico physicochemical and SAR studies of 2-aminoquinoline-3-carboxamides” (Bioorg Med Chem Lett, 2021)
# Active and inactive are the calls of the source. The rule behind the calls is not given here.
# Columns and labels:
# U-87 MG [1] = test: Cytotoxicity against human U-87 MG cells assessed as inhibition of cell growth measured after 48 hrs by MTT assay; type: functional, cell-based, U-87MG ATCC
# U-87 MG [2] = test: Cytotoxicity against human U-87 MG cells assessed as inhibition of cell growth at 100 uM measured after 48 hrs by MTT assay; type: functional, cell-based; settings: U-87MG ATCC
# MKN-45 [3] = test: Cytotoxicity against human MKN-45 cells assessed as inhibition of cell growth measured after 48 hrs by MTT assay; type: functional, cell-based; settings: MKN-45, 48 h
# A549 [4] = test: Cytotoxicity against human A549 cells assessed as inhibition of cell growth measured after 48 hrs by MTT assay; type: functional, cell-based; settings: A549, 48 h
# HCT-116 [5] = test: Cytotoxicity against human HCT-116 cells assessed as inhibition of cell growth measured after 48 hrs by MTT assay; type: functional, cell-based; settings: HCT-116, 48 h
# U-87 MG [6] = test: Cytotoxicity against human U-87 MG cells assessed as inhibition of cell growth at 200 uM measured after 48 hrs by MTT assay; type: functional, cell-based; settings: U-87MG ATCC
# A549 [7] = test: Cytotoxicity against human A549 cells assessed as inhibition of cell growth at 200 uM measured after 48 hrs by MTT assay; type: functional, cell-based
# MKN-45 [8] = test: Cytotoxicity against human MKN-45 cells assessed as inhibition of cell growth at 200 uM measured after 48 hrs by MTT assay; type: functional, cell-based
# HCT-116 [9] = test: Cytotoxicity against human HCT-116 cells assessed as inhibition of cell growth at 200 uM measured after 48 hrs by MTT assay; type: functional, cell-based
# U-251 = test: Cytotoxicity against human U-251 cells assessed as inhibition of cell growth measured after 48 hrs by MTT assay; type: functional, cell-based; settings: U-251, 48 h
# A 172 = test: Cytotoxicity against human A 172 cells assessed as inhibition of cell growth measured after 48 hrs by MTT assay; type: functional, cell-based; settings: A 172, 48 h
# U-118-MG [10] = test: Cytotoxicity against human U-118-MG cells assessed as inhibition of cell growth measured after 48 hrs by MTT assay; type: functional, cell-based
# L02 = test: Cytotoxicity against human L02 cells assessed as inhibition of cell growth measured after 48 hrs by MTT assay; type: cell-based; settings: L02, 48 h
# NCM460 = test: Cytotoxicity against human NCM460 cells assessed as inhibition of cell growth measured after 48 hrs by MTT assay; type: cell-based; settings: NCM460, 48 h
# CCD-841CoN = test: Cytotoxicity against human CCD-841CoN cells assessed as inhibition of cell growth measured after 48 hrs by MTT assay; type: cell-based
# U-87 MG [11] = test: Effect on cell morphology in human U-87 MG cells assessed as appearance of round cells; type: functional, cell-based; settings: U-87MG ATCC
# U-118-MG [12] = test: Effect on cell morphology in human U-118-MG cells assessed as appearance of round cells; type: functional, cell-based
# U-87 MG [13] = test: Effect on cell morphology in human U-87 MG cells assessed as lose of adherence; type: functional, cell-based; settings: U-87MG ATCC
# U-118-MG [14] = test: Effect on cell morphology in human U-118-MG cells assessed as lose of adherence; type: functional, cell-based
# U-87 MG [15] = test: Induction of cell cycle arrest in human U-87 MG cells assessed as accumulation of cells at G2/M phase at 0.5 times IC50 measured after 48 hrs by PI staining based flow cytometry analysis (Rvb= 5.39%); type: functional, U-87MG ATCC
# U-87 MG [16] = test: Induction of apoptosis in human U-87 MG cells assessed as live cells at 44 uM measured after 48 hrs by annexin V-FITC/PI staining based flow cytometry analysis (Rvb= 91.6%); type: functional, U-87MG ATCC
# U-87 MG [17] = test: Induction of apoptosis in human U-87 MG cells assessed as early apoptotic cells at 44 uM measured after 48 hrs by annexin V-FITC/PI staining based flow cytometry analysis (Rvb= 6.21%); type: functional, U-87MG ATCC
# U-87 MG [18] = test: Induction of apoptosis in human U-87 MG cells assessed as late apoptotic cells at 44 uM measured after 48 hrs by annexin V-FITC/PI staining based flow cytometry analysis (Rvb= 2.11%); type: functional, U-87MG ATCC
# U-87 MG [19] = test: Induction of apoptosis in human U-87 MG cells assessed as dead cells at 44 uM measured after 48 hrs by Annexin V-FITC/PI staining based flow cytometry analysis (Rvb= 0.098%); type: functional, U-87MG ATCC
Structure (SMILES),IC50 (U-87 MG [1]) [µM],IC50 (MKN-45 [3]) [µM],IC50 (A549 [4]) [µM],IC50 (HCT-116 [5]) [µM],further results
c1cc2cc3c(cc2nc1C1CC1)OCO3,> 200,,,,Activity (U-87 MG [2]): inactive
COc1cc2nc(N)c(C(=O)NCCc3c[nH]c4ccccc34)cc2c(Cl)c1OC,60.8,75.1,,,
Nc1nc2ncccc2cc1C(=O)NCc1cccnc1,303,> 200,> 200,> 200,
Nc1nc2cc3c(cc2cc1C(=O)NCc1cccnc1)OCO3,109,> 200,> 200,163,Activity (U-87 MG [6]): inactive; Activity (A549 [7]): inactive; Activity (MKN-45 [8]): inactive; Activity (HCT-116 [9]): inactive
Cn1nnc2c(C(N)=O)ncn2c1=O [TEMOZOLOMIDE],> 200,,,,
Nc1nc2cc(Cl)ccc2cc1C(=O)NCc1cccnc1,125,> 200,> 200,> 200,
Nc1nc2cc3c(cc2cc1C(=O)NCCc1c[nH]c2ccccc12)OCO3,45.5,76.9,> 200,> 200,
Nc1nc2cc3c(cc2cc1C(=O)NCCN1C(=O)c2cccc4cccc(c24)C1=O)OCO3,> 200,,73.4,,
Nc1nc2cc3c(cc2cc1C(=O)NCC1CC1)OCO3,77.2,> 200,> 200,> 200,
Nc1nc2cc3c(cc2cc1C(=O)NCCc1c[nH]c2ccccc12)OCCO3,44.4,,,,
C#CCNC(=O)c1cc2cc3c(cc2nc1N)OCO3,> 200,> 200,92,> 200,
COc1cc2cc(C(=O)NCCc3c[nH]c4ccccc34)c(N)nc2cc1OC,43.6,72.3,,,Activity (U-87 MG [2]): Active; IC50 (U-251): 121 µM; IC50 (A 172): 23.7 µM; IC50 (U-118-MG [10]): 29.2 µM; IC50 (L02): 118 µM; IC50 (NCM460): 222 µM; IC50 (CCD-841CoN): 135 µM; Activity (U-87 MG [11]): Active; Activity (U-118-MG [12]): Active; Activity (U-87 MG [13]): Active; Activity (U-118-MG [14]): Active; Activity (U-87 MG [15]): 23.14%; Activity (U-87 MG [16]): 5.65%; Activity (U-87 MG [17]): 50.9%; Activity (U-87 MG [18]): 43%; Activity (U-87 MG [19]): 0.45%
Nc1nc2cc3c(cc2cc1C(=O)NCc1ccccc1)OCO3,75.6,> 200,> 200,> 200,
